According to patent US7138361B2, “Herbicidal heterocycles” (E. I. du Pont de Nemours and Company, priority 2000, dated 2006):

Assays:
Format in all cases: in vivo
[1] = tested on: lambsquarters (Chenopodium album); experiment: Test B postemergence; settings: 13 to 15 days
Procedure, shortened: (§1)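 Post-treatment, species sat 13–15 days under greenhouse conditions before visual scoring against controls, 0 (no effect) through 100 (complete control). Application preemergence to sown seeds or postemergence at 1- to 4-leaf stage, using a non-phytotoxic solvent/surfactant formulation.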

[2] = tested on: blackgrass (Alopecurus myosuroides); experiment: Test B postemergence; settings: 13 to 15 days
Procedure, shortened: as §1

[3] = tested on: crabgrass (Digitaria spp.); experiment: Test A preemergence, soil drench; settings: approx. eleven days
Procedure, shortened: (§2)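 Test chemicals in solvent/surfactant mixture applied preemergence as soil drench on sandy loam or postemergence sprayed to runoff at the 1–2-leaf stage. After ~11 days in a greenhouse, injury rated visually versus untreated controls on a 0 (no effect) to 10 (complete control) scale.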

[4] = tested on: velvetleaf (Abutilon theophrasti); experiment: Test A preemergence, soil drench; settings: approx. eleven days
Procedure, shortened: as §2

[5] = tested on: redroot pigweed (Amaranthus retroflexus); experiment: Test A preemergence, soil drench; settings: approx. eleven days
Procedure, shortened: as §2

[6] = tested on: giant foxtail (Setaria viridis); experiment: Test A preemergence, soil drench; settings: approx. eleven days
Procedure, shortened: as §2

[7] = tested on: morning glory (Ipomoea spp.); experiment: Test A preemergence, soil drench; settings: Morningglory, approx. eleven days
Procedure, shortened: as §2

[8] = tested on: barnyardgrass (Echinochloa crus-galli); experiment: Test A preemergence, soil drench; settings: approx. eleven days
Procedure, shortened: as §2

[9] = tested on: duck salad (Heteranthera limosa); experiment: Test B flooded paddy test; settings: Rate 1000 g/ha, scale of 0 to 100 where 0 is no effect and 100 is complete control, visually evaluated after 13 to 15 days
Procedure, shortened: (§3)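 Greenhouse-held for 13 to 15 days after treatment at the 2-leaf stage, paddy-grown plants were scored visually against controls on a 0-to-100 control scale; a dash marks no test result.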

rice (Oryza saliva) [10] = experiment: Test B flooded paddy test; settings: Rate 1000 g/ha, scale of 0 to 100 where 0 is no effect and 100 is complete control, visually evaluated after 13 to 15 days
Procedure, shortened: as §3

[11] = tested on: smallflower flatsedge (Cyperus difformis); experiment: Test B flooded paddy test; settings: Rate 1000 g/ha, scale of 0 to 100 where 0 is no effect and 100 is complete control, visually evaluated after 13 to 15 days
Procedure, shortened: as §3

[12] = tested on: barnyardgrass (Echinochloa crus-galli); experiment: Test B flooded paddy test; settings: Rate 1000 g/ha, scale of 0 to 100 where 0 is no effect and 100 is complete control, visually evaluated after 13 to 15 days
Procedure, shortened: as §3

Sunflower = experiment: Test C preemergence; settings: Rate 31 g/ha, scale 0 to 100
[13] = tested on: duck salad (Heteranthera limosa); experiment: Test C flooded paddy test; settings: for Ducksalad plant response rating: Flooded Paddy, scale 0 to 100, 0 no effect, 100 complete control; for Plant response rating, Ducksalad: flooded paddy test, scale 0 to 100 (0 no effect, 100 complete control)
Procedure, shortened: (§4)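 Plants were grown to the 2-leaf stage under flooded paddy conditions and treated. They were then kept in a greenhouse for 12 to 14 days and visually rated against untreated controls on a 0–100 scale, where 0 is no effect and 100 is complete control.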

rice (Oryza saliva) [14] = experiment: Test C flooded paddy test; settings: for Rice plant response rating: Flooded Paddy, scale 0 to 100, 0 no effect, 100 complete control; for Plant response rating, Rice: flooded paddy test, scale 0 to 100 (0 no effect, 100 complete control)
Procedure, shortened: as §4

[15] = tested on: smallflower flatsedge (Cyperus difformis); experiment: Test C flooded paddy test; settings: for Flatsedge plant response rating: Flooded Paddy, scale 0 to 100, 0 no effect, 100 complete control; for Plant response rating, Flatsedge: flooded paddy test, scale 0 to 100 (0 no effect, 100 complete control)
Procedure, shortened: as §4

[16] = tested on: barnyardgrass (Echinochloa crus-galli); experiment: Test C flooded paddy test; settings: for Barnyardgrass plant response rating: Flooded Paddy, scale 0 to 100, 0 no effect, 100 complete control; for Plant response rating, Barnyardgrass: flooded paddy test, scale 0 to 100 (0 no effect, 100 complete control)
Procedure, shortened: as §4

[17] = Rate 125 g/ha, scale 0 (no effect) to 100 (complete control)
[18] = Rate 500 g/ha, scale 0 to 100, 0 is no effect, 100 is complete control

O=C1C(n2ccc(C3CC3)n2)OCN1c1cccc(C(F)(F)F)c1 (stereo not shown) [Compound 28]
Plant response rating, Lambsquarters [1, 17]: 60 | Plant response rating, Lambsquarters [1, 18]: 70 | Plant response rating, Blackgrass [2, 17]: 0 | Plant response rating, Blackgrass [2, 18]: 0 | Plant response rating (visual injury vs untreated controls) ([3]; Rate 500 g/ha): 90 | Plant response rating (visual injury vs untreated controls) ([3]; Rate 2000 g/ha): 100 | Plant response rating (visual injury vs untreated controls) ([4]; Rate 500 g/ha): 10 | Plant response rating (visual injury vs untreated controls) ([4]; Rate 2000 g/ha): 10 | Plant response rating (visual injury vs untreated controls) ([5]; Rate 500 g/ha): 100 | Plant response rating (visual injury vs untreated controls) ([5]; Rate 2000 g/ha): 100 | Plant response rating (visual injury vs untreated controls) ([6]; Rate 500 g/ha): 100 | Plant response rating (visual injury vs untreated controls) ([6]; Rate 2000 g/ha): 100 | Plant response rating (visual injury vs untreated controls) ([7]; Rate 500 g/ha): 0 | Plant response rating (visual injury vs untreated controls) ([7]; Rate 2000 g/ha): 0 | Plant response rating (visual injury vs untreated controls) ([8]; Rate 500 g/ha): 100 | Plant response rating (visual injury vs untreated controls) ([8]; Rate 2000 g/ha): 100 | Plant response rating, Ducksalad [9]: 100 | Plant response rating, Rice (rice (Oryza saliva) [10]): 50 | Plant response rating, Flatsedge [11]: 100 | Plant response rating, Barnyardgrass [12]: 100 | Plant response rating, Sunflower (Sunflower): 0 | Ducksalad plant response rating ([13]; Rate 250 g/ha): 70 | Ducksalad plant response rating ([13]; Rate 500 g/ha): 100 | Plant response rating, Ducksalad ([13]; Rate 62 g/ha): 0 | Plant response rating, Ducksalad ([13]; Rate 125 g/ha): 0 | Rice plant response rating (rice (Oryza saliva) [14]; Rate 250 g/ha): 20 | Rice plant response rating (rice (Oryza saliva) [14]; Rate 500 g/ha): 20 | Plant response rating, Rice (rice (Oryza saliva) [14]; Rate 62 g/ha): 0 | Plant response rating, Rice (rice (Oryza saliva) [14]; Rate 125 g/ha): 20 | Flatsedge plant response rating ([15]; Rate 250 g/ha): 100 | Flatsedge plant response rating ([15]; Rate 500 g/ha): 100 | Plant response rating, Flatsedge ([15]; Rate 62 g/ha): 80 | Plant response rating, Flatsedge ([15]; Rate 125 g/ha): 80 | Barnyardgrass plant response rating ([16]; Rate 250 g/ha): 40 | Barnyardgrass plant response rating ([16]; Rate 500 g/ha): 70 | Plant response rating, Barnyardgrass ([16]; Rate 62 g/ha): 0 | Plant response rating, Barnyardgrass ([16]; Rate 125 g/ha): 0
